Results filed as inconclusive are left out.
System: CD8F1 mice, subcutaneous mammary adenocarcinoma, T/C%
Experiment: NCI In Vivo Anticancer Drug Screen. Data for tumor model Mammary Adenocarcinoma CD8F1 (subcutaneous) in CD8F1
Details: higher = larger tumour
Method in brief: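 Antitumor activity is assessed in transplantable-tumor mice by comparing the treated group with a vehicle-treated control group. Survival or tumor size serves as the measure, reported as T divided by C.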

[1] = endpoint: median tumor weight (est.), dose: 25.0 mg/kg/injection, schedule: Q07DX005 (ip), vehicle: saline
[2] = endpoint: median tumor weight (est.), dose: 50.0 mg/kg/injection, schedule: Q07DX005 (ip), vehicle: saline
[3] = endpoint: median tumor weight (est.), dose: 100.0 mg/kg/injection, schedule: Q07DX005 (ip), vehicle: saline
[4] = endpoint: median tumor weight (est.), dose: 200.0 mg/kg/injection, schedule: Q07DX005 (ip), vehicle: saline
[5] = endpoint: median tumor weight change, dose: 125.0 mg/kg/injection, schedule: Q01DX001 (ip), vehicle: saline with Tween-80

In the case of `COP12(OCCO1)SC(C(F)(F)F)=C(C(F)(F)F)S2`, the T/C [1] is reported as 210 % of control, the T/C [2] is reported as 183 % of control and the T/C [3] is reported as 351 % of control. The T/C [4] was 159 % of control and the T/C (endpoint: median tumor weight (est.), dose: 400.0 mg/kg/injection, schedule: Q07DX005 (ip), vehicle: saline) was 72 % of control.
`Cc1ccc2c(c1)N=C(Nc1ccccc1)N=S2(C)=O` (stereo not given) was tested, and the T/C (endpoint: median tumor weight change, dose: 7.81 mg/kg/injection, schedule: Q01DX001 (ip), vehicle: saline with Tween-80) was 115 % of control, the T/C (endpoint: median tumor weight change, dose: 15.62 mg/kg/injection, schedule: Q01DX001 (ip), vehicle: saline with Tween-80) was 121 % of control and the T/C (endpoint: median tumor weight change, dose: 31.25 mg/kg/injection, schedule: Q01DX001 (ip), vehicle: saline with Tween-80) was 67 % of control. The T/C [5] was 93 % of control.
For `COC1CC(C)C(OC)c2cc(O)cc(c2O)NC(=O)/C(C)=C/C=C\C(C)C(OC(N)=O)/C(C)=C\C(C)C1OC` (stereo not given), the T/C (endpoint: median tumor weight change, dose: 6.25 mg/kg/injection, schedule: Q01DX001 (ip), vehicle: saline + Tween-80 + alcohol) was 87 % of control, the T/C (endpoint: median tumor weight change, dose: 12.5 mg/kg/injection, schedule: Q01DX001 (ip), vehicle: saline + Tween-80 + alcohol) was 88 % of control and the T/C (endpoint: median tumor weight change, dose: 25.0 mg/kg/injection, schedule: Q01DX001 (ip), vehicle: saline + Tween-80 + alcohol) was 87 % of control.
In the case of `O=C1C=CN(C2OC(CO)C(O)C2O)C(=O)C1` (stereo not given), the T/C (endpoint: median tumor weight (est.), dose: 12.5 mg/kg/injection, schedule: Q07DX005 (ip), vehicle: saline) is reported as 97 % of control, the T/C [1] is reported as 99 % of control and the T/C [2] is reported as 101 % of control. For the same molecule, the T/C [3] was 120 % of control and the T/C [4] was 78 % of control.
`O=C1c2c(O)ccc(O)c2C(=O)c2c(NCCNCCO)ccc(NCCNCCO)c21` was tested, and the T/C (endpoint: median tumor weight (est.), dose: 0.25 mg/kg/injection, schedule: Q07DX005 (ip), vehicle: acid diluted with saline) was 106 % of control, the T/C (endpoint: median tumor weight (est.), dose: 0.5 mg/kg/injection, schedule: Q07DX005 (ip), vehicle: acid diluted with saline) was 93 % of control and the T/C (endpoint: median tumor weight (est.), dose: 0.5 mg/kg/injection, schedule: Q07DX005 (ip), vehicle: water) was 59 % of control. For the same molecule, the T/C (endpoint: median tumor weight (est.), dose: 1.0 mg/kg/injection, schedule: Q07DX005 (ip), vehicle: acid diluted with saline) was 82 % of control, the T/C (endpoint: median tumor weight (est.), dose: 1.0 mg/kg/injection, schedule: Q07DX005 (ip), vehicle: water) was 112 % of control and the T/C (endpoint: median tumor weight (est.), dose: 2.0 mg/kg/injection, schedule: Q07DX005 (ip), vehicle: acid diluted with saline) was 65 % of control.
In the case of `CCCCCNc1ncnc2c(C)[nH]nc12`, the T/C (endpoint: median tumor weight change, dose: 62.5 mg/kg/injection, schedule: Q01DX001 (ip), vehicle: Klucel (hydroxypropylcellulose) (HPC)) is reported as 101 % of control, the T/C (endpoint: median tumor weight change, dose: 125.0 mg/kg/injection, schedule: Q01DX001 (ip), vehicle: Klucel (hydroxypropylcellulose) (HPC)) is reported as 89 % of control and the T/C (endpoint: median tumor weight change, dose: 250.0 mg/kg/injection, schedule: Q01DX001 (ip), vehicle: Klucel (hydroxypropylcellulose) (HPC)) is reported as 71 % of control.
For `Cc1ccc(S(=O)(=O)NC(=S)S)cc1`, the T/C (endpoint: median tumor weight (est.), dose: 12.5 mg/kg/injection, schedule: Q07DX005 (ip), vehicle: saline with Tween-80) was 110 % of control, the T/C (endpoint: median tumor weight (est.), dose: 25.0 mg/kg/injection, schedule: Q07DX005 (ip), vehicle: saline with Tween-80) was 94 % of control and the T/C (endpoint: median tumor weight (est.), dose: 100.0 mg/kg/injection, schedule: Q07DX005 (ip), vehicle: saline with Tween-80) was 91 % of control. The T/C (endpoint: median tumor weight (est.), dose: 200.0 mg/kg/injection, schedule: Q07DX005 (ip), vehicle: saline with Tween-80) was 95 % of control and the T/C (endpoint: median tumor weight (est.), dose: 400.0 mg/kg/injection, schedule: Q07DX005 (ip), vehicle: saline with Tween-80) was 106 % of control.
With `O=[N+]([O-])c1ccc(N2CCOCC2)c2c1no[n+]2[O-]` the T/C (endpoint: median tumor weight change, dose: 62.5 mg/kg/injection, schedule: Q01DX001 (ip), vehicle: saline with Tween-80) was 100 % of control, the T/C [5] was 114 % of control and the T/C (endpoint: median tumor weight change, dose: 250.0 mg/kg/injection, schedule: Q01DX001 (ip), vehicle: saline with Tween-80) was 43 % of control. For the same molecule, the T/C (endpoint: median tumor weight change, dose: 500.0 mg/kg/injection, schedule: Q01DX001 (ip), vehicle: saline with Tween-80) was 56 % of control.
For `CCOC(=O)c1c[nH]c2oc(/C=N/N3CC(CN4CCOCC4)OC3=O)cc2c1=O` (stereo not given), the T/C (endpoint: median tumor weight (est.), dose: 12.5 mg/kg/injection, schedule: Q07DX005 (ip), vehicle: suspension in saline) was 107 % of control, the T/C (endpoint: median tumor weight (est.), dose: 25.0 mg/kg/injection, schedule: Q07DX005 (ip), vehicle: suspension in saline) was 87 % of control and the T/C (endpoint: median tumor weight (est.), dose: 50.0 mg/kg/injection, schedule: Q07DX005 (ip), vehicle: suspension in saline) was 97 % of control. For the same molecule, the T/C (endpoint: median tumor weight (est.), dose: 100.0 mg/kg/injection, schedule: Q07DX005 (ip), vehicle: suspension in saline) was 155 % of control and the T/C (endpoint: median tumor weight (est.), dose: 400.0 mg/kg/injection, schedule: Q07DX005 (ip), vehicle: suspension in saline) was 94 % of control.

Reference: PubChem BioAssay AID220 (DTP/NCI, 2004)
